Laboratory results taken from article PMC3692398 (Biochemical pharmacology, 2013).

Tests used:
hNET [1] = target: T1, hNET (Homo sapiens, UniProt P23975); experiment: cell-based; type: cell-based
hSERT [2] = target: T2, hSERT (Homo sapiens, UniProt P31645); experiment: Superfusion release of preloaded [3H]5-HT from HEK-hSERT cells; type: cell-based
[3] = blood from heart, periphery, and femoral veins; postmortem cases; ref [32];[33];[34]; cited from earlier work
hVMAT2 [4] = target: T3, hVMAT2 (Homo sapiens, UniProt Q05940); experiment: Inhibition of [3H]DHTB binding, HEK-hVMAT2 membranes
T3 sequence (Q05940 whole entry): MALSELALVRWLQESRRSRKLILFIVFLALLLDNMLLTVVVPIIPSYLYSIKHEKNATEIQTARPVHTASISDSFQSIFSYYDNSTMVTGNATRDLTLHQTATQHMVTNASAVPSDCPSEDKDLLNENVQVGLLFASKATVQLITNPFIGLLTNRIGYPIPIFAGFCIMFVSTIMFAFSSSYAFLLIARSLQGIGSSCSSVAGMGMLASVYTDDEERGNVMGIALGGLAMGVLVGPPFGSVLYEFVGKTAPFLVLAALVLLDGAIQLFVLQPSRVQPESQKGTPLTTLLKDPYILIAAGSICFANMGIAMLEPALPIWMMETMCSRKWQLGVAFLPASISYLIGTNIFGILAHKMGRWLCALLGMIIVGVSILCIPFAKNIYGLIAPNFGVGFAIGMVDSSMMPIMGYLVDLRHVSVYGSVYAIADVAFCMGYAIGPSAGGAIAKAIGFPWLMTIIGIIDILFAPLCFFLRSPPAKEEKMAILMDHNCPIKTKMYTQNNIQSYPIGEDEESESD

h5-HT2C receptor [5] = target: T4, h5-HT2C receptor (Homo sapiens, UniProt P28335); experiment: biochemical; type: binding
T4 sequence (P28335 33-458): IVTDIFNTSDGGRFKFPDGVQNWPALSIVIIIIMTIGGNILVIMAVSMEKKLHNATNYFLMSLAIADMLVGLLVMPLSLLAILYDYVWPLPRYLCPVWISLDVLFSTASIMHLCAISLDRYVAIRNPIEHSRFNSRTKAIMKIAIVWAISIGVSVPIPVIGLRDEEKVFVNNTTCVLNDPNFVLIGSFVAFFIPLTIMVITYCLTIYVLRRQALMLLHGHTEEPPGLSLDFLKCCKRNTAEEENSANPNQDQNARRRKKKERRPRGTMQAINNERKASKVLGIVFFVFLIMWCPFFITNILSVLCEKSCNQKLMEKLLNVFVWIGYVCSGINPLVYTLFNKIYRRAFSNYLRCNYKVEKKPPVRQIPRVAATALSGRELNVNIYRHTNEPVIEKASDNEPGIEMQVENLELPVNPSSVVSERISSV

hNET [6] = target: T1, hNET; experiment: biochemical; type: binding
hVMAT2 [7] = target: T3, hVMAT2; experiment: Inhibition of [3H]5-HT uptake, HEK-hVMAT2 membrane preparation; type: biochemical
hSERT [8] = target: T2, hSERT; experiment: Inhibition of [125I]RTI-55 binding, HEK-hSERT membranes
h5-HT1A receptor [9] = target: T5, h5-HT1A receptor (Homo sapiens, UniProt P08908); experiment: [3H]8-OH-DPAT binding, HEK-h5-HT1A
T5 sequence (P08908 1-422): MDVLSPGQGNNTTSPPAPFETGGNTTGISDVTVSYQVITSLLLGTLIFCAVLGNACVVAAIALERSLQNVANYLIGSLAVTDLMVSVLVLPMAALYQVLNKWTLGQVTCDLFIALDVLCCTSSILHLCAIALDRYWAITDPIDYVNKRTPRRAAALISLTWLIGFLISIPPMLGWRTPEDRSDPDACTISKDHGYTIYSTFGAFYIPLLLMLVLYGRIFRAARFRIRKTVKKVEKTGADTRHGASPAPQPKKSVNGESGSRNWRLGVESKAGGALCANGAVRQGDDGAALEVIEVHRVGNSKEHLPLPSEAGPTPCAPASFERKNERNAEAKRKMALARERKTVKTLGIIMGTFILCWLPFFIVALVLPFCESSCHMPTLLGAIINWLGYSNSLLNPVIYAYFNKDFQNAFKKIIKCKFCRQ

hSERT [10] = target: T2, hSERT; experiment: Inhibition of [3H]5-HT uptake, intact HEK-hSERT cells; type: cell-based
h5-HT2C receptor [11] = target: T4, h5-HT2C receptor; experiment: Inhibition of 5-HT-stimulated IP-1 formation; type: cell-based
hDAT [12] = target: T6, hDAT (Homo sapiens, UniProt Q01959); experiment: Inhibition of [3H]DA uptake, intact HEK-hDAT cells; type: cell-based
T6 sequence (Q01959 whole entry): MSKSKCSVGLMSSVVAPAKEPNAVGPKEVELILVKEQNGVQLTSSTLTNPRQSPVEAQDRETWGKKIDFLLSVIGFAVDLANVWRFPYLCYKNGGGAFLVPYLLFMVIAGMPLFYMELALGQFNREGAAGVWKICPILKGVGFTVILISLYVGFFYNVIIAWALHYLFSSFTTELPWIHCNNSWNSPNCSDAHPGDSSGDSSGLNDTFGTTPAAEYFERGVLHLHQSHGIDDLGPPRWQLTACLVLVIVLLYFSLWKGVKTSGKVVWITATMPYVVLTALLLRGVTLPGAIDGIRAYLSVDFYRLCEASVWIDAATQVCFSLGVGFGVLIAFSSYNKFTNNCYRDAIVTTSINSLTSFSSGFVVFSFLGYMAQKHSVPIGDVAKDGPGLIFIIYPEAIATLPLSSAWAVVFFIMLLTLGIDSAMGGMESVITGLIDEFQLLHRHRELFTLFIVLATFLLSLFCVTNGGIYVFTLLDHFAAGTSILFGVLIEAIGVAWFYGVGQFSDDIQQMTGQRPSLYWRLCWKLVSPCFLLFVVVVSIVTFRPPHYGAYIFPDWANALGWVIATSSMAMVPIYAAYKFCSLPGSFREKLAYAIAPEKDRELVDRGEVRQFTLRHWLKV

h5-HT1A receptor [13] = target: T5, h5-HT1A receptor; experiment: Stimulation of [35S]GTPγS binding, HEK-h5-HT1A membranes; type: biochemical
hDAT [14] = target: T6, hDAT; experiment: Inhibition of [125I]RTI-55 binding, HEK-hDAT membranes
h5-HT2A receptor = h5-HT2A receptor (Homo sapiens, UniProt P28223); experiment: Inhibition of 5-HT-stimulated IP-1 formation; type: cell-based; settings: 100 nM 5-HT; normalized to maximal inhibition by ketanserin (10 µM)
Sequence of h5-HT2A receptor (P28223 whole entry, the tested form may be a part): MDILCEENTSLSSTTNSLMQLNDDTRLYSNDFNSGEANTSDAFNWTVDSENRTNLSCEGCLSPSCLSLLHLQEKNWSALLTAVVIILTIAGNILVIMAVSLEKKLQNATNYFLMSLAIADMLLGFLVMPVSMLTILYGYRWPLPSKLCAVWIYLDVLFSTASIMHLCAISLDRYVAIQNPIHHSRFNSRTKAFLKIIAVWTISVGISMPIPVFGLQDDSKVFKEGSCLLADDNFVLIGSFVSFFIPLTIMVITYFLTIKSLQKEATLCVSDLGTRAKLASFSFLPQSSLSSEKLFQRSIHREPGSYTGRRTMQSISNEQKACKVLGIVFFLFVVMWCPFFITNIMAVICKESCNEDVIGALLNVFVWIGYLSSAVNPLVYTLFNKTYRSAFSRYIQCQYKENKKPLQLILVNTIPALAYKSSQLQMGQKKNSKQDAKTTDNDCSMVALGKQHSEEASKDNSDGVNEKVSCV

hNET [15] = target: T1, hNET; experiment: Superfusion release of preloaded [3H]NE from HEK-hNET cells; type: cell-based
hSigma1 receptor = hSigma1 receptor (Homo sapiens, UniProt Q99720); experiment: [3H]; type: binding; settings: Inhibition of [3H]pentazocine binding Ki ± sem, hSigma1
Sequence of hSigma1 receptor (Q99720 whole entry, the tested form may be a part): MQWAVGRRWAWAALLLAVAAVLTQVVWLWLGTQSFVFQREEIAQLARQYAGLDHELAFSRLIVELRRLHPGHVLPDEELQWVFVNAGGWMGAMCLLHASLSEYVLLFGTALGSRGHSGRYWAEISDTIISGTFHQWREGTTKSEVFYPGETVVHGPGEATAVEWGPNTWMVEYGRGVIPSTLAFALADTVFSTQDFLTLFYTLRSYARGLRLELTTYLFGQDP

hVMAT2 [16] = target: T3, hVMAT2; experiment: Superfusion release of preloaded [3H]NE from HEK-hVMAT2 cells; type: cell-based
hDAT [17] = target: T6, hDAT; experiment: Superfusion release of preloaded [3H]DA from HEK-hDAT cells; type: cell-based

T2 sequence (P31645 whole entry, the tested form may be a part): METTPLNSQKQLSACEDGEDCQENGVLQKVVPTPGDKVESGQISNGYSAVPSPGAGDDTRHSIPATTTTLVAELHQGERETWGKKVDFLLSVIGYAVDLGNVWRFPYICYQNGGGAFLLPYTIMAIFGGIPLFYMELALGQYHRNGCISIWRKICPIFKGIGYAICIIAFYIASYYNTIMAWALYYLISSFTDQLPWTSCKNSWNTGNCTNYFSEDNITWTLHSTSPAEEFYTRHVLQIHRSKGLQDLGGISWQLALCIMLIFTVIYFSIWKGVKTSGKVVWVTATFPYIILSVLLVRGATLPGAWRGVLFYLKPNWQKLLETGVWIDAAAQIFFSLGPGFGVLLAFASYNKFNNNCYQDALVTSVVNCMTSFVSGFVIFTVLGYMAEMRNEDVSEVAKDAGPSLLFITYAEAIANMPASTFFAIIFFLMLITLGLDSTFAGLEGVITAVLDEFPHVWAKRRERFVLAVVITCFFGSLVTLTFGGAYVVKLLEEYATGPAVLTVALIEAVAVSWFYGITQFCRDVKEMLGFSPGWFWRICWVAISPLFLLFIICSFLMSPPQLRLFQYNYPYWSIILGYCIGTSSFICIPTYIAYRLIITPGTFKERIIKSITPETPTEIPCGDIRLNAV
T1 sequence (P23975 whole entry, the tested form may be a part): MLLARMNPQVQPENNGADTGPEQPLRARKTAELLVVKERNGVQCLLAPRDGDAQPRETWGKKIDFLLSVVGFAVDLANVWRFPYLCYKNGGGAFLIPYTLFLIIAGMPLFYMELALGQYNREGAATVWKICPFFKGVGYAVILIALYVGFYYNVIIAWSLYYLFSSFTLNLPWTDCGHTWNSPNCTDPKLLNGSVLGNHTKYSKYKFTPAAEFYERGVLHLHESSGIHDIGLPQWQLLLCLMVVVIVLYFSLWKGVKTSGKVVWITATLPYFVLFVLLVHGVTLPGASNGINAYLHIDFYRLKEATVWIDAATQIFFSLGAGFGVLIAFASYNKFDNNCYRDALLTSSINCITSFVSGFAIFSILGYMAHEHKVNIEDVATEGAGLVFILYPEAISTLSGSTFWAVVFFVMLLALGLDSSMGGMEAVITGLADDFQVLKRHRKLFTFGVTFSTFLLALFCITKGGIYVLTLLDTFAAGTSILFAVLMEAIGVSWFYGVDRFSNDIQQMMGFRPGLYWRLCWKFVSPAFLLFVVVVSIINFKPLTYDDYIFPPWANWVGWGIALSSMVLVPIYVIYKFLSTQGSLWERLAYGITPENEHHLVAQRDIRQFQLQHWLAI

## CNC(C)C(=O)c1ccc(C)cc1 (centres unmarked) [Mephedrone, 4-methyl-N-methylcathinone]
hNET [1]
  IC50: 0.0536 ± 0.0087 µM
hSERT [2]
  % maximum release ± sem, hSERT [3H]5-HT: 53 ± 13%
  EC50: 11.9 ± 4.9 µM
  time of peak [3H]5-HT release after addition of drug: about 6 min
[3]
  postmortem blood concentration: 0.06 to 3.3 mg/L
  postmortem blood concentration (molar): 0.25 to 14 µM
hVMAT2 [4]
  Ki: > 1000 µM
h5-HT2C receptor [5]
  Ki: 9.1 ± 2.1 µM
hNET [6]
  Ki: 11.8 ± 4 µM
hVMAT2 [7]
  IC50: 116 ± 8.8 µM
hSERT [8]
  Ki: 21 ± 4.8 µM
h5-HT1A receptor [9]
  Ki: > 91 µM
hSERT [10]
  IC50: 0.51 ± 0.15 µM
h5-HT2C receptor [11]
  IC50: > 440 µM
h5-HT2C receptor [11]; 100 nM 5-HT, normalized to maximal inhibition by SB242084 (1 µM)
  h5-HT2C Inhibition of 5-HT-stimulated IP-1 formation % maximum inhibition ± sem: 66.3 ± 8.4%
hDAT [12]
  IC50: 0.098 ± 0.027 µM
h5-HT1A receptor [13]
  EC50: 126 ± 29 µM
h5-HT1A receptor [13]; read-out: h5-HT1A Stimulation of [35S]GTPγS binding % maximum stimulation ± sem
  Emax: 44%
hDAT [14]
  Ki: 4.8 ± 0.75 µM
h5-HT2A receptor
  h5-HT2A Inhibition of 5-HT-stimulated IP-1 formation % maximum inhibition ± sem: 98.7 ± 1.3%
hNET [15]
  EC50: 0.41 ± 0.13 µM
  time of peak [3H]NE release after addition of drug: 8 to 16 min
hNET [15]; relative to maximal AUC induced by METH (0.3 or 1 µM)
  % maximum release ± sem, hNET [3H]NE: 152 ± 32%
hSigma1 receptor
  Ki: 7.8 ± 2 µM
hVMAT2 [16]
  EC50: 66 ± 23 µM
  Release of [3H]NE % maximum release ± sem or range, hVMAT2: 33.1 ± 1.9%
hDAT [17]
  % maximum release ± sem, hDAT [3H]DA: 68 ± 11%
  EC50: 1.19 ± 0.34 µM
hDAT [17]; 4-FMC 10 µM to 300 µM, mephedrone 30 µM, methylone 100 µM
  time of peak/maximal [3H]DA release after addition of drug: 8 min
